The values below come from US4299822A, “N-Trifluoroacetyladriamycin-14-O-hemiglutarate and -hemiadipate and therapeutic compositions containing same” (Sidney Farber Cancer Institute, Inc., priority 1980, dated 1981).

The conditions of series [1]: clinical use; cited from earlier work.
For series [2], the system named is CCRF-CEM cells. Kind of series: growth inhibition of CCRF-CEM cell line in culture. The format is cell-based. The note with it: Homo sapiens, read-out: ID50 (dose required to inhibit growth of the cultures by 50% relative to control). The text has this:
The in vitro assays measure the growth inhibiting activity of the materials against the CCRF-CEM cell line in culture. […] The in vivo evaluations were made by preparing a 0.2 to 0.7% by weight solution of the active agent in a formulation consisting of 10% by volume of each polyethoxylated castor oil and ethanol in saline and injecting the dosage intraperitoneally. The evaluations were made of the antitumor activity against the murine P388 and murine L1210 leukemias in BDF1 male mice according to standard National Cancer Institute protocols as set forth by Geran et al., Cancer Chemotherap. Rep., Part 3, Volume 3, pages 1 et seq.

The subject of series [3] is murine P388 leukemia. Kind of series: in vivo antitumor activity against murine P388 leukemia, ip qd 1-4. The arrangement: species or system mouse (BDF1 male mice). As for the experimental part:
(§1) The toxicity and therapeutic effectiveness of the new compounds and active agents of the present invention are shown by in vitro assays and by in vivo evaluations in mice. The in vitro assays measure the growth inhibiting activity of the materials against the CCRF-CEM cell line in culture. The cell line was derived from the peripheral blood of a child with lymphoblastic leukemia as described by Foley et al., Cancer, Volume 18, page 522 et seq. (1965), and the assays were carried out by the procedure of Foley and Lazarus, Biochem. Pharmacol., Volume 16, pages 659 et seq. (1967), the results being reported in terms of the dose in micromoles per liter required to inhibit growth of the cultures by 50% relative to control cultures to which no drug had been added (ID50). The in vivo evaluations were made by preparing a 0.2 to 0.7% by weight solution of the active agent in a formulation consisting of 10% by volume of each polyethoxylated castor oil and ethanol in saline and injecting the dosage intraperitoneally. The evaluations were made of the antitumor activity against the murine P388 and murine L1210 leukemias in BDF1 male mice according to standard National Cancer Institute protocols as set forth by Geran et al., Cancer Chemotherap. Rep., Part 3, Volume 3, pages 1 et seq. (1972) , except that a qd 1-4 schedule was used in place of qd 1-9 in order to conserve materials.
(§2) Optimal dosage was determined by testing doses which were at several multiples of 10 milligrams/kilogram of body weight. Some effectiveness can be observed at dosages ranging from 30 to 70 milligrams/kilogram of body weight, depending upon the particular compound employed.
The following table summarizes the in vivo antitumor activity of the same compounds as those in Table I, evaluated against murine P388 leukemia as described above. All compounds were administered intraperitoneally, adriamycin in clinical formulation (1 part adriamycin plus 5 parts lactose, in 0.9% saline), the other compounds in 10% Emulphor EL-620, 10% ethanol, 80% isotonic saline.

The subject of series [4] is murine L1210 leukemia. Kind of series: in vivo antitumor activity against L1210 leukemia, ip days 1-4. The arrangement: species or system mouse (BDF1 male mice). As for the experimental part: as §1, §2
All compounds were administered intraperitoneally; in tests (1) and (2), the compounds were in 10% Emulphor EL-620, 10% ethanol, and 80% isotonic saline. In test (3) the compound was in aqueous buffer containing monobasic potassium phosphate and sodium hydroxide (0.05 M), pH 7.40: […]

Series [5] in a line: cytotoxicity or anti-tumor activity (general statement). The note with it: for cytotoxicity or anti-tumor activity relative to adriamycin: vs adriamycin; for cytotoxicity or anti-tumor activity relative to N-trifluoroacetyladriamycin-14-valerate: vs valerate. Here is the method:
as §1

The nature of series [6]: solubility in water. The note with it: for solubility: phosphate buffer, pH 7.4, aqueous buffer; for solubility in water relative to N-trifluoroacetyladriamycin-14-valerate: physiological pH in the range pH 7.2-7.5.
Series [7] concerns mice. The experiment in a line: toxicity to mice. The format is in vivo, mouse. As for the experimental part:
as §1

A short description of series [8]: hydrolytic stability in aqueous buffers, TLC quantification of N-trifluoroacetyladriamycin. The format is physicochemical. As to conditions: for degraded at 24 h: aqueous buffer, dark, read-out: Percent hydrolyzed; for resistance to hydrolysis: aqueous solutions. The text has this:
The results were as follows:

For series [9] the following is noted: steroid administration to patients with vehicle-associated chest pain; cited from earlier work.
Where [10] appears, read: each dose 1.0 mg/kg ip, clinical formulation (lactose, 0.9% saline).
Setting [11] is: each dose 2.0 mg/kg ip, clinical formulation (lactose, 0.9% saline).
[12] abbreviates: each dose 3.0 mg/kg ip, clinical formulation (lactose, 0.9% saline).
Where [13] appears, read: each dose 4.0 mg/kg ip, clinical formulation (lactose, 0.9% saline).
The mark [14] stands for this setting: each dose 5.0 mg/kg ip, clinical formulation (lactose, 0.9% saline).
The mark [15] stands for this setting: 50.0 mg/kg/d × 4 ip, 10% Emulphor EL-620, 10% ethanol, 80% isotonic saline.
Where [16] appears, read: 60.0 mg/kg/d × 4 ip, 10% Emulphor EL-620, 10% ethanol, 80% isotonic saline.
[17] abbreviates: test (3): 50.0 mg/kg/d × 4 ip, aqueous phosphate buffer (0.05 M) pH 7.40.
Where [18] appears, read: test (3): 60.0 mg/kg/d × 4 ip, aqueous phosphate buffer (0.05 M) pH 7.40.
Setting [19] is: each dose 40.0 mg/kg ip, 10% Emulphor EL-620, 10% ethanol, 80% saline.
[20] abbreviates: each dose 50.0 mg/kg ip, 10% Emulphor EL-620, 10% ethanol, 80% saline.
[21] abbreviates: each dose 60.0 mg/kg ip, 10% Emulphor EL-620, 10% ethanol, 80% saline.
Setting [22] is: each dose 70.0 mg/kg ip, 10% Emulphor EL-620, 10% ethanol, 80% saline.
[23] abbreviates: each dose 30.0 mg/kg ip, 10% Emulphor EL-620, 10% ethanol, 80% saline.

Converted amounts (≈) assume the structure as drawn. Where two headings read alike, the source gives them in different places.

Consider `COc1cccc2c1C(=O)c1c(O)c3c(c(O)c1C2=O)C[C@@](O)(C(=O)CO)C[C@@H]3O[C@H]1C[C@H](N)[C@H](O)[C@H](C)O1` [Adriamycin], for which the “toxic side-effects (dose-limiting)” value in series [1] is “acute myelosuppression and cumulative dose-related cardiac toxicity”. In [2] (CCRF-CEM), the IC50 came to 50 nM. In addition, the “% ILS (percent increase in life span relative to untreated controls)” value was 81% in series [3] (setting [10]); 90% in series [3] (setting [11]); 181% in series [3] (setting [12]); 63% in series [3] (setting [13]); -19% in [3] (ip, 5 mg/kg). In addition, the “No. alive on d 30” value in series [3] (setting [10]) is on record as 0/7; in series [3] (setting [11]) it was 2/7; in series [3] (setting [12]), 4/7; in series [3] (setting [13]) it was 0/7; in [3] (setting [14]), 0/7. Moreover, the “Survival, Median day of death (range)” value in series [3] (setting [10]) was 20.0 (18-27) day; in series [3] (setting [11]) it was 21.0 (20-32) day; in series [3] (setting [12]) it was 31.0 (23-36) day; in series [3] (setting [13]), 18.0 (7-28) day; in series [3] (setting [14]), 9.0 (7-27) day. Further, the “No. alive on d 60” value in [3] (setting [11]) was 1/7; in [3] (setting [12]), 2/7.

Regarding `COc1cccc2c1C(=O)c1c(O)c3c(c(O)c1C2=O)CC(O)(C(=O)COC(=O)CCCCC(=O)O)CC3OC1CC(NC(=O)C(F)(F)F)C(O)C(C)O1` (centres unmarked) [N-Trifluoroacetyladriamycin-14-O-hemiadipate], the “% ILS (percent median increase in life span relative to untreated controls, calculated as of day 50)” value in [4] (setting [15]), in [4] (setting [16]), in [4] (setting [17]) and in series [4] (setting [18]) was above 456% each time. Besides, the “No. alive on d 50” value in [4] (setting [15]) is listed as 7/7; in [4] (setting [16]) it was 6/7; in series [4] (setting [17]), 5/7; in series [4] (setting [18]), 7/7. Besides, the “prolonging the survival of mice bearing the L1210 leukemia” value in series [4] (ip) was “highly effective in prolonging the survival of mice bearing the L1210 leukemia”. In addition, the IC50 in [2] (CCRF-CEM cells, in vitro) was found to be 310 nM. Besides, the “cytotoxicity or anti-tumor activity relative to adriamycin” value in series [5] is on record as “greater than that of adriamycin”. Moreover, the “cytotoxicity or anti-tumor activity relative to N-trifluoroacetyladriamycin-14-valerate” value in series [5] is “approximately equal to that of N-trifluoroacetyladriamycin-14-valerate”. Moreover, the “No. alive on d 30” value is given as 6/7 in series [3] (setting [19]), 6/7 in [3] (setting [20]), 6/7 in series [3] (setting [21]) and 7/7 in series [3] (setting [22]). For the same compound, the “No. alive on d 60” value is given as 6/7 in [3] (setting [19]), 5/7 in [3] (setting [20]), 6/7 in [3] (setting [21]) and 7/7 in series [3] (setting [22]). For the same compound, the “Survival, day of death (range only, no median)” value is 25 days in series [3] (setting [19]), 23,45 day in [3] (setting [20]), 24,93 day in series [3] (setting [21]) and 61 to 77 days in series [3] (setting [22]). Besides, the concentration in solution in series [6] (solubility) was 60 mg/mL (≈ 78.2 mM). For the same compound, the “solubility in water relative to N-trifluoroacetyladriamycin-14-valerate” value in series [6] is given as “many times greater than that of N-trifluoroacetyladriamycin-14-valerate”. Besides, the “toxicity to mice relative to adriamycin or daunomycin” value in series [7] is reported as “significantly less toxic to mice than adriamycin or daunomycin”. The degraded at 24 h in series [8] (pH 7.4, pH 7.40, 4° C.) was 0%; in series [8] (pH 7.4, pH 7.40, 27° C.), 0.5%; in series [8] (pH 8, pH 8.00, 4° C.), 0.3%; in [8] (pH 8, pH 8.00, 27° C.) it was 1%; in series [8] (pH 9, pH 9.00, 4° C.), 0.5%. Further, in [8], the resistance to hydrolysis entry is reported as “excellent resistance to hydrolysis”.

Regarding `COc1cccc2c1C(=O)c1c(O)c3c(c(O)c1C2=O)CC(O)(C(=O)COC(=O)CCCC(=O)O)CC3OC1CC(NC(=O)C(F)(F)F)C(O)C(C)O1` (centres unmarked) [N-Trifluoroacetyladriamycin-14-O-hemiglutarate], the IC50 in series [2] (CCRF-CEM cells, in vitro) was found to be 280 nM. In addition, in series [5], the “cytotoxicity or anti-tumor activity relative to adriamycin” value is recorded as “greater than that of adriamycin”. Further, the “cytotoxicity or anti-tumor activity relative to N-trifluoroacetyladriamycin-14-valerate” value in series [5] is “approximately equal to that of N-trifluoroacetyladriamycin-14-valerate”. Moreover, the results for the “% ILS (percent increase in life span relative to untreated controls)” value in [3] (setting [23]), in series [3] (setting [19]) and in series [3] (setting [20]) were 81%, 109% and 172%, respectively. The “No. alive on d 30” value is 2/7 in series [3] (setting [23]); 2/7 in series [3] (setting [19]); 3/7 in series [3] (setting [20]); 5/7 in [3] (setting [21]); 5/7 in series [3] (setting [22]). Moreover, the “No. alive on d 60” value in series [3] (setting [23]) is 0/7; in series [3] (setting [19]) it was 1/7; in [3] (setting [20]), 2/7; in [3] (setting [21]), 4/7; in series [3] (setting [22]), 4/7. Besides, the entries for the “Survival, Median day of death (range)” value in [3] (setting [23]), in series [3] (setting [19]) and in series [3] (setting [20]) were 20.0 (20-35) day, 23.0 (20-35) day and 30.0 (20-42) day, respectively. The results for the “Survival, day of death (range only, no median)” value in [3] (setting [21]) and in series [3] (setting [22]) were 20,29 day and 25 to 36 days, respectively. Further, in [6], the solubility – broadly, the concentration that dissolves in the medium under given conditions – was 65 mg/mL (≈ 86.2 mM). Further, in [6], the “solubility in water relative to N-trifluoroacetyladriamycin-14-valerate” value is given as “many times greater than that of N-trifluoroacetyladriamycin-14-valerate”. Also, in [7], the “toxicity to mice relative to adriamycin or daunomycin” value is given as “significantly less toxic to mice than adriamycin or daunomycin”. Moreover, the degraded at 24 h in series [8] (pH 7.4, pH 7.40, 4° C.) was 0%; in series [8] (pH 7.4, pH 7.40, 27° C.) it was 1%; in series [8] (pH 9, pH 9.00, 4° C.), below 0.5%; in series [8] (pH 9, pH 9.00, 27° C.), 3%. Also, the resistance to hydrolysis entry in series [8] is recorded as “excellent resistance to hydrolysis”.

Turning to `COc1cccc2c1C(=O)c1c(O)c3c(c(O)c1C2=O)C[C@@](O)(C(C)=O)C[C@@H]3O[C@H]1C[C@H](N)[C@H](O)[C@H](C)O1` [daunorubicin], the “toxic side-effects (dose-limiting)” value in series [1] was “acute myelosuppression and cumulative dose-related cardiac toxicity”.

On to `C[C@]12CCC(=O)C=C1CC[C@@H]1[C@@H]2[C@@H](O)C[C@@]2(C)[C@H]1CC[C@]2(O)C(=O)COC(=O)CCC(=O)O` [hydrocortisone hemisuccinate], for which the “effect on chest pain symptom complex during valerate infusion” value in series [9] is given as “eliminated the symptom complex in those cases”.
